{"source": "patent US20250188092A1", "about": "“RIFAMYCIN ANALOGS” (THE REGENTS OF THE UNIVERSITY OF MICHIGAN, priority 2021, published 2025)", "key": {"[1]": {"target": "T1, human pregnane X receptor (hPXR) (Homo sapiens, UniProt O75469)", "T1 sequence (O75469 1-434)": "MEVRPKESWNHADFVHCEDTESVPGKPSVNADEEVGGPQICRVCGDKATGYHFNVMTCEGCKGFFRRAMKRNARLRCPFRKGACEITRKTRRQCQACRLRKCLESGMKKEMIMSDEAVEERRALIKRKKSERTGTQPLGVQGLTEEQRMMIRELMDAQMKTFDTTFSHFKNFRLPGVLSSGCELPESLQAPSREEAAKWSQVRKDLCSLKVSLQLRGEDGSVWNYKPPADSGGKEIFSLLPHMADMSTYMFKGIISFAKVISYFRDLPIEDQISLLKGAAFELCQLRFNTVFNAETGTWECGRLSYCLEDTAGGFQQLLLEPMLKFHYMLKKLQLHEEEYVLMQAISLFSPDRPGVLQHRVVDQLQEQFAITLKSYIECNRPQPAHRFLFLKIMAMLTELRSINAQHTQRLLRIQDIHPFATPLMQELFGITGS"}, "VERO cells (ATCC CRL-81)": {"system": "VERO cells (ATCC CRL-81)", "test": "Vero cell toxicity", "format": "cell-based", "conditions": "72 hours exposure", "description": "Cytotoxicity for a mammalian cell line was determined by exposing VERO cells (ATCC CRL-81) to serial dilutions of test compounds for 72 hours, followed by addition of resazurin and measurement of fluorescence after 4 hours incubation (Choules, et al., Antimnicrob. Agents Chemother. 2019, 63, e02204-02218)."}, "MTB H37Rv ATCC 27294": {"system": "MTB H37Rv ATCC 27294", "test": "MIC, microplate Alamar Blue assay (MABA)", "format": "cell-based, Mycobacterium tuberculosis", "conditions": "for MIC90: MTB H37Rv ATCC 27294, microplate Alamar Blue assay, lowest concentration giving ≥90% reduction in fluorescence"}, "E. coli WT RNAP": {"target": "T2, E. coli WT RNAP (Escherichia coli, UniProt P0A8V2)", "T2 construct": "made in house", "test": "biochemical"}, "M. tuberculosis H37Rv": {"system": "M. tuberculosis H37Rv", "test": "Minimum bactericidal concentration (MBC, CFU Assay)", "format": "cell-based, Mycobacterium tuberculosis"}, "[2]": {"target": "T3, E. coli D516V (RIF^R) RNAP (Escherichia coli, UniProt P0A8V2, D516V)", "T3 construct": "made in house", "test": "biochemical"}, "[3]": {"target": "T4, E. coli S531L (RIF^R) RNAP (Escherichia coli, UniProt P0A8V2, S531L)", "T4 construct": "made in house", "test": "biochemical"}}, "note": "Like-named read-outs stand apart in the source and are kept apart here.", "data": [{"smiles": "CO[C@H]1/C=C/O[C@@]2(C)Oc3c(C)c(O)c4c(=O)c(c5oc6cc(C)cc(N7CCN(C)CC7)c6nc-5c4c3C2=O)NC(=O)/C(C)=C\\C=C\\[C@H](C)[C@H](O)[C@@H](C)[C@@H](O)[C@@H](C)[C@H](OC(C)=O)[C@@H]1C", "note": "[Compound 30a, (7S,9E,11S,12R,13S,14R,15R,16R,17S,18S,19E,21Z)-2,15,17-Trihydroxy-11-methoxy-3,7,12,14,16,18,22,30-octamethyl-32-(4-methylpiperazin-1-yl)-6,23,37-trioxo-8,27,38-trioxa-24,34-diazahexacyclo[23.11.1.1^4,7.0^5,36.0^26,35.0^28,33]octatriaconta-1(36)2,4,9,19,21,25,28,30,32,34-undecaen-13-yl acetate]", "values": [{"measurement": "DPX2 Viability @ 6.25 μM", "setting": "DPX2 cells", "result": 92, "unit": "%"}, {"measurement": "DPX2 Viability @ 25 μM", "setting": "DPX2 cells", "result": 47, "unit": "%"}, {"measurement": "hPXR Fold Act. (lucif) @ 6.25 μM", "setting": "[1]", "result": 4.6, "unit": "fold"}, {"measurement": "hPXR Fold Act. (lucif) @ 25 μM", "setting": "[1]", "result": 20.4, "unit": "fold"}, {"measurement": "IC50", "setting": "VERO cells (ATCC CRL-81)", "result": "> 8", "unit": "µM"}, {"measurement": "MIC90 MABA Rel to RMP", "setting": "MTB H37Rv ATCC 27294", "result": "<0.6"}, {"measurement": "MIC90", "setting": "MTB H37Rv ATCC 27294", "result": "<0.016", "unit": "µM"}]}, {"smiles": "CO[C@H]1/C=C/O[C@@]2(C)Oc3c(C)c(O)c4c(=O)c(c5oc6cc(N7CCN(C(=O)c8ccc(-c9ccc(C(N)=O)cc9)cc8)CC7)cc(OCc7ccc(CN8CCOCC8)cc7)c6nc-5c4c3C2=O)NC(=O)/C(C)=C\\C=C\\[C@H](C)[C@H](O)[C@@H](C)[C@@H](O)[C@@H](C)[C@H](OC(C)=O)[C@@H]1C", "note": "[Compound 17t, (7S,9E,11S,12R,13S,14R,15R,16R,17S,18S,19E,21Z)-30-(4-{[4-(4-carbamoylphenyl)-phenyl]carbonyl}piperazin-1-yl)-2,15,17-trihydroxy-11-methoxy-3,7,12,14,16,18,22-heptamethyl-32-{[4-(morpholin-4-ylmethyl)phenyl]methoxy}-6,23,37-trioxo-8,27,38-trioxa-24,34-diazahexacyclo[23.11.1.1^4,7.0^5,36.0^26,35.0^28,33]octatriaconta-1,3,5(36)9,19,21,25,28,30,32,34-undecaen-13-yl acetate]", "values": [{"measurement": "DPX2 Viability @ 6.25 μM", "setting": "DPX2 cells; 6.25 μM, 24 h", "result": 100, "unit": "%"}, {"measurement": "hPXR Fold Act. (lucif) @ 6.25 μM", "setting": "[1]; 6.25 μM, 24 h", "result": 1.3, "unit": "fold"}, {"measurement": "hPXR Fold Act. (lucif) @ 25 μM", "setting": "[1]; 25 μM, 24 h", "result": 2.1, "unit": "fold"}, {"measurement": "IC50", "setting": "VERO cells (ATCC CRL-81)", "result": 55, "unit": "µM"}, {"measurement": "MIC90 MABA Rel to RMP", "setting": "MTB H37Rv ATCC 27294", "result": 0.6}, {"measurement": "MIC90", "setting": "MTB H37Rv ATCC 27294", "result": 0.032, "unit": "µM"}]}, {"smiles": "CO[C@H]1/C=C/O[C@@]2(C)Oc3c(C)c(O)c4c(=O)c(c5oc6cc(N7CCN(CC(C)C)CC7)cc(OCc7ccc(CN8CCN(C(=O)CN9CCOCC9)CC8)cc7)c6nc-5c4c3C2=O)NC(=O)/C(C)=C\\C=C\\[C@H](C)[C@H](O)[C@@H](C)[C@@H](O)[C@@H](C)[C@H](OC(C)=O)[C@@H]1C", "note": "[Compound 17d, (7S,9E,11S,12R,13S,14R,15R,16R,17S,18S,19E,21Z)-2,15,17-Trihydroxy-11-methoxy-3,7,12,14,16,18,22-heptamethyl-30-[4-(2-methylpropyl)piperazin-1-yl]-32-{[4-({4-[2-(morpholin-4-yl)acetyl]piperazin-1-yl}methyl)phenyl]methoxy}-6,23,37-trioxo-8,27,38-trioxa-24,34-diazahexacyclo[23.11.1.1^4,7.0^5,36.0^26,35.0^28,33]octatriaconta-1(36)2,4,9,19,21,25,28,30,32,34-undecaen-13-yl acetate]", "values": [{"measurement": "DPX2 Viability @ 6.25 μM", "setting": "DPX2 cells; 6.25 μM, 24 h", "result": 104, "unit": "%"}, {"measurement": "DPX2 Viability @ 25 μM", "setting": "DPX2 cells; human", "result": 84, "unit": "%"}, {"measurement": "IC50", "setting": "VERO cells (ATCC CRL-81); Chlorocebus sabaeus, Vero", "result": "> 8", "unit": "µM"}, {"measurement": "IC50", "setting": "E. coli WT RNAP", "result": 0.016, "unit": "µM"}, {"measurement": "MBC99 Day 7 (CFU Assay) MBC99 Rel to RMP", "setting": "M. tuberculosis H37Rv; CFU Assay MBC99 relative to rifampin (RMP = 1)", "result": 0.15}, {"measurement": "MBC", "setting": "M. tuberculosis H37Rv; Mycobacterium tuberculosis, 168 h, Day 7, M. tuberculosis H37Rv, ≥99% reduction in colony forming units, read-out: MBC99 Day 7 (CFU Assay) MBC99", "result": 0.02, "unit": "µM"}, {"measurement": "MIC90", "setting": "MTB H37Rv ATCC 27294; Mycobacterium tuberculosis", "result": "< 0.016", "unit": "µM"}, {"measurement": "IC50", "setting": "[2]", "result": 7.3, "unit": "µM"}, {"measurement": "IC50", "setting": "[3]", "result": 32, "unit": "µM"}]}]}
